Patent US5622962A, “5α-reductase inhibitors” (priority 1995, dated 1997)

Experiments:
[1] = target: T1, Type I 5α-Reductase from Human Scalp (Homo sapiens, UniProt P18405); assay: Human Type I 5α-reductase assay (conversion of [3H]-testosterone to 5α-reduced metabolites); assay type: biochemical; settings: pH 7.5, 0.3 μM; 50 nM [3H]-testosterone, pH 7.5, 25°, 180 min; compared to control reaction mixtures; read-out: percent inhibition of Type I AR
T1 construct: Scalp punch biopsies from graft recipient sites were obtained from human hair transplant procedures; from tissue; host or cells: human scalp punch biopsies (hair transplant graft recipient sites), homogenate, 100,000×g pellet
T1 sequence (P18405 1-259): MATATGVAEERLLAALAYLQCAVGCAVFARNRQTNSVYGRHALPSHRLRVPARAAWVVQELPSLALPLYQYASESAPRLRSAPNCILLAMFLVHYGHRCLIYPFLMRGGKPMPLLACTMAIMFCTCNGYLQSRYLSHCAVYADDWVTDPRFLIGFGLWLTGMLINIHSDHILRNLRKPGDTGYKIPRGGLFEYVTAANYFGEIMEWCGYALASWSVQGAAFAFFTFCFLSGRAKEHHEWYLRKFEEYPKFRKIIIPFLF

[2] = target: T2, Type II 5α-Reductase from Human Prostate (Homo sapiens, UniProt P31213); assay: Human Type II 5α-reductase assay (conversion of [3H]-testosterone to 5α-reduced metabolites); assay type: biochemical; settings: pH 5.5, 0.3 μM; sodium acetate pH 5.5, 25°, 30 min; compared to control reaction mixtures; read-out: percent inhibition of Type II AR
T2 construct: The same procedure as above was used for preparations using tissue from prostate surgery; from tissue; host or cells: human prostate tissue from surgery, homogenate, 100,000×g pellet
T2 sequence (P31213 1-254): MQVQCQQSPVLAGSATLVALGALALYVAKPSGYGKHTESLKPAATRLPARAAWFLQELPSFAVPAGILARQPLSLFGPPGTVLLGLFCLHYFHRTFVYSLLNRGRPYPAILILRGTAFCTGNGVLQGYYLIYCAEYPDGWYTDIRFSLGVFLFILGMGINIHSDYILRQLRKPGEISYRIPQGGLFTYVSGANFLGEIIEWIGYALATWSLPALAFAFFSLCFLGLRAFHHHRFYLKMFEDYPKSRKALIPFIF

- inhibition at 0.3 µM [1]: 36%
- inhibition at 0.3 µM [2]: 24%
SMILES: CN1C(=O)CC[C@]2(C)c3ccc(-c4ccc5c(c4)C(=O)C(=O)N5)cc3CC[C@@H]12 [Example 223, (+)-(4aR)-(10bR)-4-methyl-8-(2,3-dioxo-5-indolinyl)-10b-methyl-1,2,3,4,4a,5,6,10b-octahydrobenzo[f]quinolin-3-one]
